Experimental data: US11795460B2, “Compositions and methods for TTR gene editing and treating ATTR amyloidosis” (Intellia Therapeutics, Inc., priority 2017, dated 2023)

Tests used:
TTR [1] = experiment: TTR editing in primary cyno hepatocytes electroporated with Spy Cas9 protein and dgRNAs (Tables 10, 11); type: cell-based, cynomolgus monkey; settings: primary cyno hepatocytes electroporated with Spy Cas9 protein (RNP) and cyno specific dgRNAs
Method: (§1) Primary liver hepatocytes. Primary human liver hepatocytes (PHH) and primary cynomolgus liver hepatocytes (PCH) (Gibco) were cultured per the manufacturer's protocol (Invitrogen, protocol 11.28.2012). In brief, the cells were thawed and resuspended in hepatocyte thawing medium with supplements (Gibco, Cat. CM7000) followed by centrifugation at 100 g for 10 minutes for human and 80 g for 4 minutes for cyno. The supernatant was discarded and the pelleted cells resuspended in hepatocyte plating medium plus supplement pack (Invitrogen, Cat. A1217601 and CM3000). Cells were counted and plated on Bio-coat collagen I coated 96-well plates (ThermoFisher, Cat. 877272) at a density of 33,000 cells/well for human or 60,000 cells/well for cyno (or 65,000 cells/well when assaying effects on TTR protein, described further below). Plated cells were allowed to settle and adhere for 6 or 24 hours in a tissue culture incubator at 37° C. and 5% CO2 atmosphere. After incubation cells were checked for monolayer formation and media was replaced with hepatocyte culture medium with serum-free supplement pack (Invitrogen, Cat. A1217601 and CM4000).
(§2) […] formation was performed prior to electroporation or transfection of Spy Cas9 protein loaded with guide RNAs (RNPs) onto cells. For dual guide (dgRNAs), individual crRNA and trRNA was pre-annealed by mixing equivalent amounts of reagent and incubating at 95° C. for 2 min and cooling to room temperature. Single guide (sgRNAs) were boiled at 95° C. for 2 min and cooling to room temperature. The boiled dgRNA or sgRNA was incubated with Spy Cas9 protein in Optimem for 10 minutes at room temperature to form a ribonucleoprotein (RNP) complex.
(§3) For RNP electroporation into primary human and cyno hepatocytes, the cells are thawed and resuspended in Lonza electroporation Primary Cell P3 buffer at a concentration of 2500 cells per μL for human hepatocytes and 3500 cells per μL for cyno hepatocytes. A volume of 20 μL of resuspended cells and 5 μL of RNP are mixed together per guide. 20 μL of the mixture is placed into a Lonza electroporation plate. The cells were electroporated using the Lonza nucleofector with the preset protocol EX-147. Post electroporation, the cells are transferred into a Biocoat plate containing pre-warmed maintenance media and placed in a tissue culture incubator at 37° C. and 5% CO2.
(§4) Transfected cells were harvested post-transfection at 24, 48, or 72 hours. The genomic DNA was extracted from each well of a 96-well plate using 50 μL/well BuccalAmp DNA Extraction solution (Epicentre, Cat. QE09050) per manufacturer's protocol. All DNA samples were subjected to PCR and subsequent NGS analyses, as described herein.
(§5) To quantitatively determine the efficiency of editing at the target location in the genome, sequencing was utilized to identify the presence of insertions and deletions introduced by gene editing.
(§6) Primers were designed around the target site within the gene of interest (e.g. TTR), and the genomic area of interest was amplified.
(§7) Additional PCR was performed per the manufacturer's protocols (Illumina) to add chemistry for sequencing. The amplicons were sequenced on an Illumina MiSeq instrument. The reads were aligned to a reference genome (e.g., the human reference genome (hg38), the cynomologus reference genome (mf5), the rat reference genome (rn6), or the mouse reference genome (mm10)) after eliminating those having low quality scores. The resulting files containing the reads were mapped to the reference genome (BAM files), where reads that overlapped the target region of interest were selected and the number of wild type reads versus the number of reads which contain an insertion, substitution, or deletion was calculated.
(§8) The editing percentage (e.g., the “editing efficiency” or “percent editing” or “indel frequency”) is defined as the total number of sequence reads with insertions/deletions (“indels”) or substitutions over the total number of sequence reads, including wild type. […]

TTR [2] = experiment: TTR editing in HEK293_Cas9 cells transfected with dgRNAs (Table 4); type: cell-based, human; settings: HEK293_Cas9 cells (constitutively express Spy Cas9) transfected with dgRNAs
Method: HEK293 Cas9 cell line. The human embryonic kidney adenocarcinoma cell line HEK293 constitutively expressing Spy Cas9 (“HEK293_Cas9”) was cultured in DMEM media supplemented with 10% fetal bovine serum and 500 μg/ml G418. Cells were plated at a density of 10,000 cells/well in a 96-well plate 24 hours prior to transfection. Cells were transfected with Lipofectamine RNAiMAX (ThermoFisher, Cat. 13778150) per the manufacturer's protocol. Cells were transfected with a lipoplex containing individual crRNA (25 nM), trRNA (25 nM), Lipofectamine RNAiMAX (0.3 μL/well) and OptiMem.
as §4, §5, §6, §7
(§9) The editing percentage (e.g., the “editing efficiency” or “percent editing” or “indel frequency”) is defined as the total number of sequence reads with insertions/deletions (“indels”) or substitutions over the total number of sequence reads, including wild type.
(§10) Guides in dgRNA format targeting human TTR and the cynomologus matched sequences were delivered to HEK293 Cas9, HUH7 and HepG2 cell lines, as well as primary human hepatocytes and primary cynomolgus monkey hepatocytes as described in Example 1. Percent editing was determined for crRNAs comprising each guide sequence across each cell type and the guide sequences were then rank ordered based on highest % edit. The screening data for the guide sequences in Table 1 in all five cell lines are listed below (Table 4 through 11).

TTR [3] = experiment: TTR editing in primary human hepatocytes transfected with Spy Cas9 protein (RNP) loaded with dgRNAs (Table 8); type: cell-based; settings: dgRNA transfected with Spy Cas9 protein (RNP)
Method: as §1, §2
For RNP lipoplex transfections, cells were transfected with Lipofectamine RNAiMAX (ThermoFisher, Cat. 13778150) per the manufacturer's protocol. Cells were transfected with an RNP containing Spy Cas9 (10 nM), individual guide (10 nM), tracer RNA (10 nM), Lipofectamine RNAiMAX (1.0 μL/well) and OptiMem. RNP formation was performed as described above.
as §4, §5, §6, §7, §9
Guides in dgRNA format targeting human TTR and the cynomologus matched sequences were delivered to HEK293 Cas9, HUH7 and HepG2 cell lines, as well as primary human hepatocytes and primary cynomolgus monkey hepatocytes as described in Example 1. […]

TTR [4] = experiment: TTR editing in primary human hepatocytes transfected with Spy Cas9 mRNA and dgRNAs (Table 9); type: cell-based; settings: dgRNA co-transfected with Spy Cas9 mRNA (SEQ ID NO:2)
Method: as §1
Lipofectamine RNAiMax (ThermoFisher, Cat. 13778150) based transfections were conducted as per the manufacturer's protocol. Cells were sequentially transfected with a lipoplex containing Spy Cas9 mRNA (100 ng), Lipofectamine RNAiMax (0.4 μL/well) and OptiMem followed by a separate lipoplex containing crRNA (25 nM) and tracer RNA (25 nM) or sgRNA (25 nM), Lipofectamine RNAiMax (0.4 μL/well) and OptiMem.
as §4, §5, §6, §7, §9, §10

TTR [5] = experiment: TTR editing in HepG2 cells transfected with Spy Cas9 mRNA and dgRNAs (Table 6); type: cell-based, human; settings: HepG2 cells co-transfected with Spy Cas9 mRNA (SEQ ID NO:2) and dgRNAs
Method: HepG2 cell line. The human hepatocellular carcinoma cell line HepG2 (American Type Culture Collection, Cat. HB-8065) was cultured in DMEM media supplemented with 10% fetal bovine serum. Cells were counted and plated on Bio-coat collagen I coated 96-well plates (ThermoFisher, Cat. 877272) at a density of 10,000 cells/well in a 96-well plate 24 hours prior to transfection. Cells were transfected with Lipofectamine 2000 (ThermoFisher, Cat. 11668019) per the manufacturer's protocol. Cells were sequentially transfected with lipoplex containing Spy Cas9 mRNA (100 ng), Lipofectamine 2000 (0.2 μL/well) and OptiMem followed by a separate lipoplex containing individual crRNA (25 nM), tracer RNA (25 nM), Lipofectamine 2000 (0.2 μL/well) and OptiMem.
as §4, §5, §6, §7, §9, §10

TTR [6] = experiment: TTR editing in primary human hepatocytes electroporated with Spy Cas9 protein loaded with dgRNAs (Table 7); type: cell-based; settings: dgRNA electroporated with Spy Cas9 protein (RNP)
Method: as §1, §2, §3, §4, §5, §6, §7, §8

TTR [7] = experiment: TTR editing in HUH7 cells transfected with Spy Cas9 mRNA and dgRNAs (Table 5); type: cell-based, human; settings: HUH7 cells co-transfected with Spy Cas9 mRNA (SEQ ID NO:2) and dgRNAs
Method: HUH7 cell line. The human hepatocellular carcinoma cell line HUH7 (Japanese Collection of Research Bioresources Cell Bank, Cat. JCRB0403) was cultured in DMEM media supplemented with 10% fetal bovine serum. Cells were plated on at a density of 15,000 cells/well in a 96-well plate 20 hours prior to transfection. Cells were transfected with Lipofectamine MessengerMAX (ThermoFisher, Cat. LMRNA003) per the manufacturer's protocol. Cells were sequentially transfected with a lipoplex containing Spy Cas9 mRNA (100 ng), MessengerMAX (0.3 μL/well) and OptiMem followed by a separate lipoplex containing individual crRNA (25 nM), tracer RNA (25 nM), MessengerMAX (0.3 μL/well) and OptiMem.
as §4, §5, §6, §7, §9, §10

Sequence | Avg % Deletion (TTR [1]) | Avg % Edit (TTR [1]) | Avg % Deletion (TTR [2]) | Avg % Edit (TTR [2]) | Avg % Insert (TTR [2]) | Avg % Deletion (TTR [3]) | Avg % Edit (TTR [3]) | Avg % Insert (TTR [3]) | Avg % Deletion (TTR [4]) | Avg % Edit (TTR [4]) | Avg % Insert (TTR [4]) | Avg % Deletion (TTR [5]) | Avg % Edit (TTR [5]) | Avg % Insert (TTR [5]) | Avg % Deletion (TTR [6]) | Avg % Edit (TTR [6]) | Avg % Insert (TTR [6]) | Avg % Deletion (TTR [7]) | Avg % Edit (TTR [7]) | Avg % Insert (TTR [7]) | other results
AUACCAGUCCAGCGAGGCAG (tested as dual guide RNA, chemistry not given here) [CR005366] | 76.67% | 77.00% |  |  |  |  |  |  |  |  |  |  |  |  |  |  |  |  |  |  | Avg % Insert (TTR [1]): 0.33%
CCUCCUCUGCCUCGCUGGAC (tested as dual guide RNA, chemistry not given here) [CR005368] | 27.27% | 27.60% |  |  |  |  |  |  |  |  |  |  |  |  |  |  |  |  |  |  | Avg % Insert (TTR [1]): 0.33%
CAUUGACAGCAGGACUGCCU (tested as dual guide RNA, chemistry not given here) [CR005365] | 64.85% | 64.94% |  |  |  |  |  |  |  |  |  |  |  |  |  |  |  |  |  |  | Avg % Insert (TTR [1]): 0.10%
GCGGCGGGGGCCGGAGUCGU (tested as dual guide RNA, chemistry not given here) [CR003374] |  |  | 10.10% | 10.91% | 0.81% | 0.14% | 2.65% | 2.52% | 0.03% | 0.27% | 0.27% | 0.31% | 5.43% | 5.12% | 0.10% | 0.80% | 0.70% | 2.87% | 3.10% | 0.45% | 
UGCACGGCCACAUUGAUGGC (tested as dual guide RNA, chemistry not given here) [CR003349] |  |  | 5.16% | 13.19% | 8.03% | 1.83% | 10.83% | 9.00% | 1.70% | 2.57% | 0.90% | 3.91% | 8.36% | 4.46% | 1.87% | 4.10% | 2.33% | 4.82% | 14.14% | 9.73% | 
GGCGGCAAUGGUGUAGCGGC (tested as dual guide RNA, chemistry not given here) [CR003378] |  |  | 16.48% | 20.97% | 4.49% | 0.42% | 8.66% | 8.24% | 1.37% | 9.80% | 8.50% | 1.34% | 8.16% | 6.82% | 0.73% | 4.60% | 3.87% | 32.27% | 40.73% | 9.73% | 
GUAUUCACAGCCAACGACUC (tested as dual guide RNA, chemistry not given here) [CR003373] |  |  | 12.25% | 13.55% | 1.31% | 0.19% | 3.64% | 3.44% | 0.37% | 1.40% | 1.00% | 1.77% | 17.69% | 15.92% | 0.07% | 0.87% | 0.83% | 25.12% | 27.29% | 3.31% | 
AAUGGUGUAGCGGCGGGGGC (tested as dual guide RNA, chemistry not given here) [CR003375] |  |  | 10.85% | 11.63% | 0.78% | 0.11% | 5.04% | 4.93% | 0.03% | 1.27% | 1.23% | 0.10% | 2.06% | 1.96% | 0.07% | 1.33% | 1.27% | 2.25% | 2.38% | 0.26% | 
